These results are taken from patent publication US8765688B2, “Anti-dandruff compositions containing peptides” (priority 2007, dated 2014).

Ends that are not written are not given here.

Type in all cases: cell-based
One assay deals with Bacillus subtilis. In words: Growth inhibition of Gram-positive bacteria by P18 (optical density at 620 nm). Particulars: for optical density at 620 nm: B. subtilis suspension, 25 μM P18 solution, mean of 8 mixtures. As to the method:
(§1) The growth inhibition by P18 was investigated on Gram-positive and Gram-negative bacteria. Shin et al. 1999 (loc.cit.) had already detected an inhibition on the model organisms Escherichia coli and Bacillus subtilis within a period up to 18 hours.
(§2) The growth medium used for this was LB medium as complex medium for the organisms Escherichia coli, Bacillus subtilis and Brevibacterium epidermidis. The medium comprised 10 g of trypton, 5 g of yeast extract and 10 g of NaCl per liter.
(§3) The growth test was carried out as follows: A shake flask with medium was inoculated with Escherichia coli, Bacillus subtilis or Brevibacterium epidermidis and incubated with shaking overnight at 30° C. and 200 rpm. A 96-well microtiter plate was filled with in each case 100 μl LB medium and inoculated with E.-coli, B.-subtilis or B. epidermidis suspensions of the overnight culture. The bacteria suspension was adjusted at the start of the experiment to an optical density, measured at 620 nm, of about 0.02. The concentrates of the P18 inhibitor solutions were 1 mM in water.
(§4) The growth of the following mixtures was compared by measuring the optical density:
(§5) bacteria suspension without the addition of an inhibitor;
(§6) bacteria suspension and addition of an aqueous P18 solution with a final concentration of 25 μM. The aqueous P18 solution had been freshly prepared.
(§7) The growth was observed over a period of 40 hours by measuring the optical density. […] The growth of Gram-positive bacteria was inhibited initially.

Assay [1] relates to Brevibacterium epidermidis. The assay is described as above. The note with it: for optical density at 620 nm: B. epidermidis suspension, 25 μM P18 solution, mean of 8 mixtures. As to the method:
as §1, §2, §3, §4, §5, §6, §7

For assay [2], the system named is Malassezia furfur. Description: Growth inhibition of Malassezia furfur with equal concentrations (% by weight) of P18, Zincpyrithione, Climbazole and Ketoconazole, CFU. The note with it: for colony-forming units: 50 μM final conc., mean ± SD. As to the method:
(§8) Growth medium: M472-Pityrosporum medium according to DSMZ
(§9) The components were sterilized at 121° C., 1 bar superatmospheric pressure for 20 minutes.
(§10) 2 g/L of olive oil (sterilized by filtration and, after autoclaving, added to the other components)
(§11) Since it was a two-phase medium, the complete medium was treated with sonication in order to enlarge the phase boundary.
(§12) For agar plates, if appropriate, 150 g/L of agar agar were added to the medium.
(§13) The growth test was carried out as follows: A shake flask with M472-Pityrosporum medium was inoculated with M. furfur and incubated with shaking overnight at 30° C. and 200 rpm.
A 96-well microtiter plate was filled with in each case 100 μl of M472-Pityrosporum medium and inoculated with M. furfur suspension of the overnight culture. The M. furfur suspension was adjusted at the start of the experiment to an optical density, measured at 600 nm, of 0.02. The concentrates of the inhibitor solutions were 1 mM in DMSO for the peptide P18 and 10 mM in DMSO for Zincpyrithione, Ketoconazole and Climbazole. The DMSO final concentrations were maintained the same in all experiments. This means that a corresponding volume of DMSO was added to the mixture in the case of a higher concentration of Zincpyrithione, Ketoconazole or Climbazole concentrate in order to ensure comparability to the mixtures containing P18.
The growth of the following batches was compared by measuring the optical density:
M. furfur suspension and addition of P18 solution with a final concentration of 50 μM (equal to 0.0115% (w/w))
M furfur suspension and addition of Zincpyrithione (ZPT) solution with a final concentration of 362 μM (comparison to the mixture containing 50 μM of the peptide P18)
M furfur suspension and addition of Ketoconazole solution with a final concentration of 216 μM (comparison to the mixture containing 50 μM of the peptide P18)
M furfur suspension and addition of Climbazole solution with a final concentration of 390 μM (comparison to the mixture containing 50 μM of the peptide P18)
(§14) The microtiter plate was incubated with shaking at 30° C.
After 24 hours of incubation, the colony-forming units (CFU) were determined by plating out 10 μl of medium from each of the suspensions on agar plates. After incubation for 6 days, the colonies on the plates were counted. The CFU was determined in order to exclude an influence of the two-phase medium and also the growth form of M. furfur on the optical density. The experiments were carried out in at least two independent experiments, each with double determination.

Assay [3] concerns Malassezia furfur. In words: Incubation times with P18 from 5 minutes to 1 hour, CFU of M. furfur, compared to Zincpyrithione. On the procedure:
Since growth inhibition of M. furfur by the peptide P18 (P18 peptide sequence H-KWKLFKKIPKFLHLAKKF-NH2; SEQ ID NO: 3) had so far only been analyzed over incubation times of more than one hour, now the effect of the peptide P18 within the first minutes of incubation (5 minutes, 10 minutes and 20 minutes) up to the first hour after adding to the M. furfur overnight culture was tested and compared to the reference substance Zincpyrithione (Sigma Aldrich). For this, the peptide P18 and the reference substance Zincpyrithione were used in concentrations of 100 μM, 200 μM and 500 μM. The experiments were carried out as follows:
as §8, §9, §10, §11, §12, §13
A 96-well microtiter plate was filled with in each case 100 μl of M472-Pityrosporum medium and inoculated with M. furfur suspension of the overnight culture. The M. furfur suspension was adjusted at the start of the experiment to an optical density, measured at 600 nm, of 0.1.
The growth of the following batches was compared:
M. furfur suspension and addition of the peptide P18 with a final concentration of 100 μM, plating out after 5 minutes, 10 minutes, 20 minutes and 60 minutes
M. furfur suspension and addition of the peptide P18 with a final concentration of 200 μM plating out after 5 minutes, 10 minutes, 20 minutes and 60 minutes
M. furfur suspension and addition of the peptide P18 with a final concentration of 500 μM plating out after 5 minutes, 10 minutes, 20 minutes and 60 minutes
M. furfur suspension and addition of Zincpyrithione with a final concentration of 100 μM plating out after 5 minutes, 10 minutes, 20 minutes and 60 minutes
M. furfur suspension and addition of Zincpyrithione with a final concentration of 200 μM plating out after 5 minutes, 10 minutes, 20 minutes and 60 minutes
M. furfur suspension and addition of Zincpyrithione with a final concentration of 500 μM plating out after 5 minutes, 10 minutes, 20 minutes and 60 minutes
as §14
After the incubation times indicated above, the colony-forming units (CFU) were determined by plating out 50 μl from each of the suspensions and, after incubation for 6 days, counting the colonies. The CFU was determined in order to exclude an influence of the two-phase medium and also the growth form of M. furfur on the optical density. The experiments were independently repeated.

For the substance “KWKLFKKIPKFLHLAKKF-NH2 [P18, KWKLFKKIPKFLHLAKKF-NH2]”, the “growth of B. subtilis (in words)” value in the assay with Bacillus subtilis (25 μM, within 40 hours) is “achieved growth densities comparable with the noninhibited culture”. For the same substance, the “optical density at 620 nm” value in the assay with Bacillus subtilis (incubation time 16 h) worked out at 0.25; in the assay on Bacillus subtilis (incubation time 24 h), 0.96; with Bacillus subtilis (incubation time 40 h), 0.67; in assay [1] (incubation time 16 h), 0.29; in assay [1] (incubation time 24 h), 0.56; in assay [1] (incubation time 40 h), 1.24. In addition, in assay [1] (25 μM, within 40 hours), the “growth of B. epidermidis (in words)” value is reported as “achieved growth densities comparable with the noninhibited culture”. In the assay on Malassezia furfur [2] (50 μM (0.0115% (w/w)), equal % by weight, 24 hours), the “reduction of CFU compared to reference substances” value is “more effectively than the reference substances Zincpyrithione, Climbazole and Ketoconazole”. For the same substance, the colony-forming units with Malassezia furfur [2] (incubation time 24 h) is 1 ± 1; in the assay with Malassezia furfur [2] (incubation time 40 h), 0 ± 0. For the same substance, the “number of living Malassezia furfur cells” value in the assay on Malassezia furfur [3] (after the first 10 minutes of incubation) was “considerably reduced as compared to incubation with Zincpyrithione”. For the same substance, the “colony-forming units after the indicated incubation time” value in the assay on Malassezia furfur [3] (final concentration 100 μM, 5 minutes) is above 1000; with Malassezia furfur [3] (final concentration 100 μM, 10 minutes) it was above 1000; in the assay with Malassezia furfur [3] (final concentration 100 μM, 20 minutes), 604; in the assay with Malassezia furfur [3] (final concentration 100 μM, 60 minutes), 149 ± 60; in the assay on Malassezia furfur [3] (final concentration 200 μM, 5 minutes) it was above 1000; in the assay on Malassezia furfur [3] (final concentration 200 μM, 10 minutes) it was above 1000. The “colony-forming units after the indicated incubation time” value is above 1000 in the assay on Malassezia furfur [3] (final concentration 200 μM, 20 minutes); 52 ± 16 with Malassezia furfur [3] (final concentration 200 μM, 60 minutes); above 1000 in the assay with Malassezia furfur [3] (final concentration 500 μM, 5 minutes); 398 ± 290 in the assay with Malassezia furfur [3] (final concentration 500 μM, 10 minutes); 26 ± 6 in the assay with Malassezia furfur [3] (final concentration 500 μM, 20 minutes); 1 ± 1 with Malassezia furfur [3] (final concentration 500 μM, 60 minutes).
